Measured values: ChEMBL document CHEMBL3044764, “Synthesis and herbicidal activities of 2-cyano-3-benzylaminoacrylates containing thiazole moiety” (2010)

Columns and labels:
Brassica napus [1] = assay: Post-emergence herbicidal activity against Brassica napus (oilseed rape) after 10 days; format: functional
Brassica napus [2] = assay: Post-emergence herbicidal activity against Brassica napus (oilseed rape) at 1500 g/ha after 10 days; format: functional
Medicago sativa [3] = assay: Post-emergence herbicidal activity against Medicago sativa (alfalfa) at 1500 g/ha after 10 days; format: functional
Brassica napus [4] = assay: Pre-emergence herbicidal activity against Brassica napus (oilseed rape) at 1500 g/ha after 10 days; format: functional
[5] = biological target: Photosystem II protein D1 (Spinacia oleracea) (UniProt P69560); assay: Inhibition of photosystem II in Spinacia oleracea (spinach) chloroplast assessed as inhibition of hill reaction at 1 ug/ml relative to control
Medicago sativa [6] = assay: Pre-emergence herbicidal activity against Medicago sativa (alfalfa) at 1500 g/ha after 10 days; format: functional
Amaranthus retroflexus [7] = assay: Pre-emergence herbicidal activity against Amaranthus retroflexus at 1500 g/ha after 10 days; format: functional
Amaranthus retroflexus [8] = assay: Post-emergence herbicidal activity against Amaranthus retroflexus at 1500 g/ha after 10 days; format: functional
Amaranthus retroflexus [9] = assay: Post-emergence herbicidal activity against Amaranthus retroflexus at 750 g/ha after 10 days; format: functional
Brassica napus [10] = assay: Post-emergence herbicidal activity against Brassica napus (oilseed rape) at 375 g/ha after 10 days; format: functional
Amaranthus retroflexus [11] = assay: Post-emergence herbicidal activity against Amaranthus retroflexus at 375 g/ha after 10 days; format: functional
Brassica napus [12] = assay: Post-emergence herbicidal activity against Brassica napus (oilseed rape) at 750 g/ha after 10 days; format: functional

Structure (SMILES) | LD50 (Brassica napus [1]) [g/ha] | LD90 (Brassica napus [1]) [g/ha] | Activity (Brassica napus [2]) [%] | Activity (Medicago sativa [3]) [%] | Activity (Brassica napus [4]) [%] | inhibition [5] [%] | Activity (Medicago sativa [6]) [%] | Activity (Amaranthus retroflexus [7]) [%] | Activity (Amaranthus retroflexus [8]) [%] | Activity (Amaranthus retroflexus [9]) [%] | Activity (Brassica napus [10]) [%] | Activity (Amaranthus retroflexus [11]) [%] | Activity (Brassica napus [12]) [%]
CCOCCOC(=O)/C(C#N)=C(\NCc1ccc(OCc2cnc(Cl)s2)c(OC)c1)SC | 507.9 | 2548.33 | 86.3 | 49.2 | 10 | 87.1 | 10 | 0 | 97.4 |  |  |  | 
COCCOC(=O)/C(C#N)=C(\NCc1ccc(OCc2cnc(Cl)s2)cc1)C(C)C | 53.48 | 146.04 | 100 | 30 | 0 | 82 | 0 | 0 | 91.6 | 100 | 92.8 | 98.1 | 100
COCCOC(=O)/C(C#N)=C(/C)NCc1ccc(OCc2cnc(Cl)s2)cc1 |  |  | 98.5 | 0 | 0 | 65.2 | 0 | 0 | 0 |  |  |  | 
CC/C(NCc1ccc(OCc2cnc(Cl)s2)c(OC)c1)=C(\C#N)C(=O)OCCOC | 237.1 | 817.35 | 96.6 | 46.8 | 0 | 70.2 | 2 | 0 | 100 | 32.9 | 42.9 | 0 | 46.4
CCOCCOC(=O)/C(C#N)=C(\NCc1ccc(OCc2cnc(Cl)s2)cc1)SC | 49.14 | 197.66 | 100 | 0 | 10 | 72.5 | 0 | 0 | 100 | 91.6 | 95.1 | 55.6 | 100
CCOCCOC(=O)/C(C#N)=C(\NCc1ccc(Cl)nc1)SC | 8.84 | 133.77 | 100 | 85 | 90.7 | 75.8 | 0 | 35.1 | 100 | 100 | 100 | 100 | 100
CCOCCOC(=O)/C(C#N)=C(/C)NCc1ccc(OCc2cnc(Cl)s2)c(OC)c1 |  |  | 94.2 | 30 | 0 | 68.5 | 30.6 | 5 | 89.6 |  |  |  | 
COCCOC(=O)/C(C#N)=C(\NCc1ccc(OCc2cnc(Cl)s2)c(OC)c1)SC |  |  | 83.6 | 66.1 | 0 | 61.2 | 50.6 | 2.7 | 89.6 |  |  |  | 
CCOCCOC(=O)/C(C#N)=C(\NCc1ccc(OCc2cnc(Cl)s2)cc1)C(C)C | 73.01 | 185.4 | 100 | 15 | 0 | 72.5 | 0 | 0 | 91.6 | 100 | 51.2 | 47.2 | 100
CCOCCOC(=O)/C(C#N)=C(/CC)NCc1ccc(OCc2cnc(Cl)s2)c(OC)c1 | 196.53 | 862.13 | 98.3 | 41.9 | 5 | 71.3 | 0 | 10 | 100 | 30.9 | 41.2 | 21 | 74.6
COCCOC(=O)/C(C#N)=C(\NCc1ccc(OCc2cnc(Cl)s2)c(OC)c1)C(C)C | 101.62 | 251.01 | 100 | 71.1 | 41.7 | 80.4 | 42.9 | 0 | 100 | 89.8 | 62.4 | 73.6 | 94.1
CCOCCOC(=O)/C(C#N)=C(\NCc1ccc(OCc2cnc(Cl)s2)c(OC)c1)C(C)C | 131.42 | 484.4 | 100 | 68.5 | 0 | 93.8 | 0 | 0 | 100 | 87.8 | 73.5 | 59.3 | 100
CC/C(NCc1ccc(OCc2cnc(Cl)s2)cc1)=C(\C#N)C(=O)OCCOC | 205.19 | 640.88 | 100 | 0 | 0 | 59.6 | 0 | 0 | 0 |  |  |  | 
COCCOC(=O)/C(C#N)=C(/C)NCc1ccc(OCc2cnc(Cl)s2)c(OC)c1 |  |  | 84.6 | 56.5 | 15 | 42.7 | 0 | 0 | 92.2 |  |  |  | 
COCCOC(=O)/C(C#N)=C(\NCc1ccc(OCc2cnc(Cl)s2)cc1)SC |  |  | 100 | 30 | 0 | 80.9 | 0 | 0 | 71.3 |  |  |  | 
CCOCCOC(=O)/C(C#N)=C(/C)NCc1ccc(OCc2cnc(Cl)s2)cc1 |  |  | 100 | 0 | 0 | 56.5 | 0 | 0 | 32.6 |  |  |  | 
CCOCCOC(=O)/C(C#N)=C(/CC)NCc1ccc(OCc2cnc(Cl)s2)cc1 | 83.96 | 311.43 | 100 | 10 | 0 | 70.2 | 0 | 0 | 96.3 | 84.4 | 40 | 24.5 | 100
